From patent publication US20230140926A1, “IONIC LIQUID, SOLVENT, PREPARATION, AND TRANSDERMALLY ABSORBABLE AGENT” (Kyushu University, National University Corporation, priority 2020, published 2023) come the findings set out here.

Series [1] deals with stratum corneum. Description: Influence on stratum corneum of skin (FTIR). Details: species or system pig. The following applies: for Absorbance; CH2 asymmetric / Absorbance; CH2 symmetric / shift (cm^−1), CH2 asymmetric / shift (cm^−1), CH2 symmetric / shift (intensity), CH2 asymmetric / shift (intensity), CH2 symmetric: stratum corneum lipid; for Absorbance; CH2 asymmetric / Absorbance; CH2 symmetric / Absorbance; C═O amide-II / Absorbance; NH—C═O amide-I: FTIR, 30 minutes immersion; for shift (cm^−1), CH2 asymmetric / shift (cm^−1), CH2 symmetric / shift (intensity), CH2 asymmetric / shift (intensity), CH2 symmetric / shift (cm^−1), C═O amide-II / shift (cm^−1), NH—C═O amide-I / shift (intensity), C═O amide-II / shift (intensity), NH—C═O amide-I: versus untreated control; for Absorbance; C═O amide-II / Absorbance; NH—C═O amide-I / shift (cm^−1), C═O amide-II / shift (cm^−1), NH—C═O amide-I / shift (intensity), C═O amide-II / shift (intensity), NH—C═O amide-I: stratum corneum protein.
Protocol: Frozen skin of a pig (YMPC, Hoshino Test Animal Breeding Co., Ltd.) was returned to room temperature, dried skin was warmed at 60° C. for from 60 to 120 seconds, and the epidermal layer was peeled from the skin. […] The isolated stratum corneum was washed with water and dried for an additional 24 hours. Sections of stratum corneum were immersed in test samples (IPM, Ionic Liquids 1, 2, 4, tween-80, DGME or PBS) in glass tubes for 30 minutes at room temperature. Stratum corneum sheets were washed with 20% ethanol and dried for 1 hour. The stratum corneum sheets were analyzed by Fourier transform infrared spectroscopy (FTIR) spectroscopy. Untreated stratum corneum was used as a control.

Series [2] in a line: Evaluation of solubility of ionic liquids in a variety of solvents (visual). It is filed as physicochemical. Particulars: 50:50 by weight, room temperature. As for the experimental part:
The solubility of ionic liquids in a variety of solvents was evaluated at room temperature. Specifically, Ionic Liquids 1 to 3 were placed in a glass tube with respective solvents and mixed by stirring with a vortex mixer for from 1 to 2 minutes. The ratio of Ionic Liquids 1 to 3 to the corresponding solvents was 50:50 by weight. The solubility and transparency of the obtained liquids (liquid samples) were visually observed and evaluated according to the following criteria.
∘: Ionic liquid is dissolved uniformly and the clarity of the liquid sample is high
Δ: Ionic liquid is uniformly dissolved, but liquid sample is cloudy
×: Ionic liquid and solvent are separated, and the ionic liquid is not dissolved in the solvent. The same evaluation was performed for intermediate 2 ([EDMPC][Cl]) as a comparison.

As for tween-80, in series [1], the “Absorbance; CH2 asymmetric” value is 2920 cm⁻¹; the “Absorbance; CH2 symmetric” value was determined as 2853 cm⁻¹; the “shift (cm^−1), CH2 asymmetric” value amounted to 2 cm⁻¹; the “shift (cm^−1), CH2 symmetric” value worked out at 2 cm⁻¹. Moreover, in series [1], the “shift (intensity), CH2 asymmetric” value is listed as 2.80; the “shift (intensity), CH2 symmetric” value is listed as 1.30; the “Absorbance; C═O amide-II” value was found to be 1648 cm⁻¹; the “Absorbance; NH—C═O amide-I” value is 1542 cm⁻¹. In addition, in series [1], the “shift (cm^−1), C═O amide-II” value came to 1 cm⁻¹; the “shift (cm^−1), NH—C═O amide-I” value amounted to 5 cm⁻¹; the “shift (intensity), C═O amide-II” value turned out to be 19.01; the “shift (intensity), NH—C═O amide-I” value is 16.14.

On to `CCOCCOCCO` [DGME, diethylene glycol monoethyl ether], for which, in series [1], the “Absorbance; CH2 asymmetric” value is 2918 cm⁻¹; the “Absorbance; CH2 symmetric” value stood at 2853 cm⁻¹; the “shift (cm^−1), CH2 asymmetric” value was 0 cm⁻¹; the “shift (cm^−1), CH2 symmetric” value worked out at 2 cm⁻¹. Moreover, in series [1], the “shift (intensity), CH2 asymmetric” value was determined as 2.37; the “shift (intensity), CH2 symmetric” value is recorded as 1.25; the “Absorbance; C═O amide-II” value was 1648 cm⁻¹; the “Absorbance; NH—C═O amide-I” value was found to be 1541 cm⁻¹. In series [1], the “shift (cm^−1), C═O amide-II” value was found to be 1 cm⁻¹; the “shift (cm^−1), NH—C═O amide-I” value was 4 cm⁻¹; the “shift (intensity), C═O amide-II” value turned out to be 18.00; the “shift (intensity), NH—C═O amide-I” value was 14.31.

In the case of `CCCCCCCCCCCCCC(=O)OC(C)C` [IPM, isopropyl myristate], in series [1], the “Absorbance; CH2 asymmetric” value was 2920 cm⁻¹; the “Absorbance; CH2 symmetric” value was found to be 2853 cm⁻¹; the “shift (cm^−1), CH2 asymmetric” value came to 2 cm⁻¹; the “shift (cm^−1), CH2 symmetric” value amounted to 2 cm⁻¹. In series [1], the “shift (intensity), CH2 asymmetric” value was determined as 1.72; the “shift (intensity), CH2 symmetric” value is reported as 1.08; the “Absorbance; C═O amide-II” value was determined as 1648 cm⁻¹; the “Absorbance; NH—C═O amide-I” value is 1539 cm⁻¹. In series [1], the “shift (cm^−1), C═O amide-II” value was determined as 1 cm⁻¹; the “shift (cm^−1), NH—C═O amide-I” value came to 2 cm⁻¹; the “shift (intensity), C═O amide-II” value is reported as 13.95; the “shift (intensity), NH—C═O amide-I” value stood at 10.59.

Turning to `CCCCCCCCCCCCCC(=O)OC[C@H](COP(=O)(OCC)OCC[N+](C)(C)C)OC(=O)CCCCCCCCCCCCC` (stereo partly shown) [Intermediate 2, EDMPC chloride], the “Solubility and transparency in Dimethyl sulfoxide” value in series [2] (solvent Dimethyl sulfoxide) was “◯”. The “Solubility and transparency in Ethanol” value in series [2] (solvent Ethanol) is “◯”. In series [2] (solvent Isopropyl alcohol), the “Solubility and transparency in Isopropyl alcohol” value is “◯”. Further, the “Solubility and transparency in Isopropyl myristate” value in series [2] (solvent Isopropyl myristate) is on record as “◯”.
